# Experimental data published in PubChem BioAssay AID1645868 (Buhrlage Lab, Dana-Farber Cancer Institute and Novartis …, 2021).
# Active and inactive are the calls of the source.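 The calls were made as follows: active = maximal percent inhibition of the deubiquitinase OTUD3 of at least 30% across the tested doses; inactive = the rest.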
# Molecular target: OTU domain-containing protein 3 (Homo sapiens) (UniProt Q5T2D3)
# Test: Validation of screening hits, potency titration, in vitro enzymatic, OTU domain-containing protein 3 DUB inhibitors (AID 1645868)
# Conditions: purified OTUD3, ubiquitin-rhodamine cleavage fluorescence, 2 h
# OTU domain-containing protein 3 (Homo sapiens), sequence (Q5T2D3 whole entry, looked up, the tested form may be a part): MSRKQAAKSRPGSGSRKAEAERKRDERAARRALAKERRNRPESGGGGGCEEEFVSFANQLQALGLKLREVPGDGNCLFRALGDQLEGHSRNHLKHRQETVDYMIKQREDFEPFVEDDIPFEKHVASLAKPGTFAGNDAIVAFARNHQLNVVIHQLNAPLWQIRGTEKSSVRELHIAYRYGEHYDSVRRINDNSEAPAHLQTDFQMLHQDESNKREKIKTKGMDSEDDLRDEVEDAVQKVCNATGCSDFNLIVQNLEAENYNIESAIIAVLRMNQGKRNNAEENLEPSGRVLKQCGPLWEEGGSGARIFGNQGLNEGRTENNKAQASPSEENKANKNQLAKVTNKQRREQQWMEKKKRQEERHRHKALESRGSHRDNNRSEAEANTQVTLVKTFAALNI
row,Compound,IC50
1,COc1ccc(NC(=O)c2sc(N3CCOCC3)nc2-c2ccccc2)c(OC)c1,43.5 µM
2,CC1CCN(c2cc(-n3cnc(C(=O)N4CCCCC4)c3)ncn2)CC1,> 50 µM (inactive)
3,Oc1ccc(-c2nc3cnccn3c2NCCc2ccccc2)c(O)c1,> 50 µM (inactive)
4,Cc1ccc(CSC2=NS(=O)(=O)c3ccccc3N2)cc1,> 50 µM (inactive)
5,N#C/C(=C\c1ccc(-c2cc(Cl)ccc2Cl)o1)c1nnc2n1CCCCC2,> 50 µM (inactive)
6,CCN1C(=O)COc2ccc(NC(=O)c3ccc(OCc4nonc4C)cc3)cc21,> 50 µM (inactive)
7,Cc1cc(C)c2sc(N(CCCn3ccnc3)C(=O)Cc3ccccc3)nc2c1,24 µM
8,O=S(=O)(c1ccc(F)cc1)N1CCCC1c1ccnc(Nc2cnccn2)n1 (stereo not given),> 50 µM (inactive)
9,CC[C@H](C)[C@H](NC(=O)[C@H]([C@@H](C)CC)N(C)C(C)=O)C(=O)N[C@H](C(=O)N[C@@H](CC(C)C)C(=O)C1(C)CO1)[C@@H](C)O (stereo not given in full),> 50 µM (inactive)
10,CC1=C(C(=O)Nc2ccccc2C)C(c2ccc(OCc3ccccc3F)cc2)n2ncnc2N1 (stereo not given),24 µM
11,COc1ccc(-c2cc(C(=O)N3CCN(c4ccc([N+](=O)[O-])cc4)CC3)[nH]n2)cc1,> 50 µM (inactive)
12,Cc1ccccc1Cc1nc(-c2ccc(=O)[nH]c2)no1,> 50 µM (inactive)
13,O=S(c1ccc2ccccc2c1)c1cnns1 (stereo not given),> 50 µM (inactive)
14,CC1CCCCN1CCCNC(=O)c1ccc(N2CCc3ccccc32)s1 (stereo not given),> 50 µM (inactive)
15,CCCC(=O)Nc1nc2ccc(CCC(=O)NCc3ccc(F)cc3)cc2s1,35.6 µM
16,CC(c1ccccc1)n1c(-c2ccc(F)cc2)nc2c(c(=O)c3ccccc3n2C)c1=O (stereo not given),4.65 µM
17,Cc1ccc(Nc2nc(Nc3cccc(F)c3)nc3nccnc23)c(C)c1,> 50 µM (inactive)
18,O=C(CSc1nnc(-c2ccc3c(c2)OCO3)n1-c1ccccc1)OCC(=O)c1ccccc1,> 50 µM (inactive)
19,COc1cccc(CN2CCc3nc4nc(C)ccc4cc3C2)c1,> 50 µM (inactive)
20,COc1ccc(NC(=O)c2nnn(-c3cccc(C)c3)c2C)cc1,> 50 µM (inactive)
21,N#Cc1ccc(Cn2nnc(-c3cccc(Cl)c3)n2)cc1,> 50 µM (inactive)
22,Cc1nc(-c2noc(-c3ccncc3)n2)cn1CC(=O)N1CCN(c2ccc(F)cc2)CC1,> 50 µM (inactive)
23,O=C(Oc1ccc(-c2cnc3ccccc3n2)cc1)c1ccc(F)cc1,> 50 µM (inactive)

row,Compound,IC50
1,O=c1c2ccccc2oc2nc(-c3cccs3)n(-c3ccccc3)c(=O)c12,3.6 µM
2,COc1ccccc1-c1nc2c3c(ncn2n1)Oc1c(c(C)nn1-c1ccccc1)C3c1cccnc1 (stereo not given),> 50 µM (inactive)
3,Fc1cnc(N2CC[C@H]3CO[C@H](CNc4ncccn4)[C@H]3C2)nc1,> 50 µM (inactive)
4,Cc1cccc(C)c1NC(=O)Cn1c(=O)n(CCCCC(=O)NCc2ccc3c(c2)OCO3)c(=O)c2ccccc21,2.82 µM
5,CCOc1ccc(-c2nc(C#N)c(N3CCN(C(=O)c4ccccc4C)CC3)o2)cc1,43.4 µM
6,COc1cc(O)c2c(=O)c(-c3ccc(O)cc3)coc2c1,> 50 µM (inactive)
7,Cc1ccc(NC(=O)c2nnn(-c3ccccc3Br)c2C)cc1C,> 50 µM (inactive)
8,Cc1nn(-c2ccc(Cl)cc2)c2[nH]c(=O)c(CNCC3CCCO3)cc12 (stereo not given),> 50 µM (inactive)
9,CC1CC[C@]2(NC1)O[C@H]1C[C@H]3[C@@H]4CC[C@H]5C[C@@H](O[C@@H]6O[C@H](CO)[C@H](O[C@@H]7O[C@H](CO)[C@@H](O)[C@H](O[C@@H]8OC[C@@H](O)[C@H](O)[C@H]8O)[C@H]7O[C@@H]7O[C@H](CO)[C@@H](O)[C@H](O)[C@H]7O)[C@H](O)[C@H]6O)CC[C@]5(C)[C@H]4CC[C@]3(C)[C@H]1[C@@H]2C (stereo not given in full),> 50 µM (inactive)
10,COc1cc(-c2cc(C(=O)Nc3cc(C)[nH]n3)c3ccccc3n2)cc(OC)c1OC,> 50 µM (inactive)
11,Cc1cc(N2CCOCC2)nc2ccc(NC(=O)CCC(=O)Nc3ccc(F)cc3)cc12,> 50 µM (inactive)
12,O=c1c2c(ccn1Cc1cc(F)ccc1F)ccn2Cc1cccnc1,> 50 µM (inactive)
13,Cc1ccc(C(=O)Nc2cc3c4c(c2)CC(=O)N4CCC3)cc1C,> 50 µM (inactive)
14,Cn1c(CCN2CCCC2)nc2cc(NS(=O)(=O)c3ccccc3)ccc21,> 50 µM (inactive)
15,CCCCOc1ccc(C(=O)Nc2ccc3c(c2)CCC(=O)N3CCC)cc1,> 50 µM (inactive)
16,c1ccc(-n2nnc(-c3noc(-c4cccnc4)n3)c2-c2ccncc2)cc1,24 µM
17,COc1ccc(Nc2nc(C(=O)NCc3ccccc3)cc3occc23)cc1,> 50 µM (inactive)
18,O=C(Cn1nc2c3c4c(sc3ncn2c1=O)CCCCC4)Nc1ccc(Cl)cc1F,17.6 µM
19,O=C(CSc1nc2ccncc2[nH]1)Nc1ccc(Br)cc1F,49.8 µM
20,COc1ccc(CNC(=O)c2[nH]nc3c2CCc2ccccc2-3)cc1,> 50 µM (inactive)
21,COc1ccc(-c2cc(C(=O)NC3CCCCCC3)[nH]n2)cc1S(=O)(=O)N(C)C,> 50 µM (inactive)
22,Cc1ccc(Nc2nc(O)c(CC(=O)Nc3ccccc3C)s2)cc1C,20 µM
